In patent US20240158446A1, “CYCLIC COMPOUND HAVING SELECTIVE INHIBITORY ACTION ON KRAS OVER HRAS AND NRAS” (CHUGAI SEIYAKU KABUSHIKI KAISHA, priority 2021, published 2024):

Legend:
[1] = target: GDP-bound KRAS wild-type protein (Homo sapiens, UniProt P01116); test: Binding to KRAS by surface plasmon resonance (SPR), Single Cycle Kinetics; conditions: SPR Single Cycle Kinetics, GDP-bound KRAS wild-type protein, 1:1 binding model; read-out: KRAS KD
[2] = target: GDP-bound NRAS wild-type protein (Homo sapiens, UniProt P01111); test: Binding to NRAS by surface plasmon resonance (SPR), Single Cycle Kinetics; conditions: SPR, GDP-bound NRAS wild-type protein vs GDP-bound KRAS wild-type protein
GDP-bound NRAS wild-type protein, sequence (P01111 whole entry): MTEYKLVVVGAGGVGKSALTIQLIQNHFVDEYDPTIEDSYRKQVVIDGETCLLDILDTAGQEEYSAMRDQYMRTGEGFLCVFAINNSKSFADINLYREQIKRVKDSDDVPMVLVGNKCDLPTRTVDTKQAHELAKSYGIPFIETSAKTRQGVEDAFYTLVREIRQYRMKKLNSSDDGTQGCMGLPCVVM

[3] = target: GDP-bound HRAS wild-type protein (Homo sapiens, UniProt P01112); test: Binding to HRAS by surface plasmon resonance (SPR), Single Cycle Kinetics; conditions: SPR, GDP-bound HRAS wild-type protein vs GDP-bound KRAS wild-type protein
GDP-bound HRAS wild-type protein, sequence (P01112 whole entry): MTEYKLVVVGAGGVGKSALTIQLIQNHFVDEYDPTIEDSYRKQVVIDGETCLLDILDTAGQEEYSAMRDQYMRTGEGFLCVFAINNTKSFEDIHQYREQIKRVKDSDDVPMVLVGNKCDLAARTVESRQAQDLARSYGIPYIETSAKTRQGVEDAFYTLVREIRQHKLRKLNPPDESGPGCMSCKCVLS

GDP-bound KRAS wild-type protein, sequence (P01116 whole entry): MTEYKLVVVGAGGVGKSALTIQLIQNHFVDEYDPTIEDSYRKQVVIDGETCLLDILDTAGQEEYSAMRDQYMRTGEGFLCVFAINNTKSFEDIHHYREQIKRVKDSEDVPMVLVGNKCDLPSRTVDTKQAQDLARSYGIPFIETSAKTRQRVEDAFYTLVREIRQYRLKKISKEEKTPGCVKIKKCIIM

Row | Compound | Kd [1] [nM] | NRAS/KRAS (ratio of KD value with respect to NRAS to KD value with respect to KRAS) [2] | HRAS/KRAS (ratio of KD value with respect to HRAS to KD value with respect to KRAS) [3]
1 | C=CC[C@H]1C(=O)N[C@@H]([C@@H](C)CC)C(=O)N(C)CC(=O)N(C)[C@H]2CCCCN(C2=O)[C@@H](Cc2ccc(C(F)(F)F)cc2)C(=O)N(C)CC(=O)N[C@@H](CCc2cc(F)c(C(F)(F)F)c(F)c2)C(=O)N2C[C@H](OCC)C[C@H]2C(=O)NC2(CCC2)C(=O)N(C)[C@@H](C2CCCC2)C(=O)N(C)[C@H](C(=O)N2CCOCC2)CC(=O)N1C [PP0710] | 0.029 | C (A compound having a KD ratio of 0.1 or more and less than 3 is denoted as C) | B (a compound having 3 or more and less than 10 is denoted as B)
2 | C#CC[C@H]1C(=O)N[C@@H]([C@@H](C)CC)C(=O)N(C)CC(=O)N(C)[C@H]2CCCCN(C2=O)[C@@H](Cc2ccc(C(F)(F)F)cc2)C(=O)N(C)CC(=O)N[C@@H](CCc2cc(F)c(C(F)(F)F)c(F)c2)C(=O)N2C[C@H](OCC)C[C@H]2C(=O)NC2(CCC2)C(=O)N(C)[C@@H](C2CCCC2)C(=O)N(C)[C@H](C(=O)N2CCOCC2)CC(=O)N1C [PP0711] | 0.025 | C (A compound having a KD ratio of 0.1 or more and less than 3 is denoted as C) | B (a compound having 3 or more and less than 10 is denoted as B)
3 | CCO[C@@H]1C[C@H]2C(=O)NC3(CCC3)C(=O)N(C)[C@@H](C3CCCC3)C(=O)N(C)[C@H](C(=O)N3CCOCC3)CC(=O)N(C)[C@@H](CC3CC3)C(=O)N[C@@H]([C@@H](C)CC)C(=O)N(C)CC(=O)N(C)[C@H]3CCCCN(C3=O)[C@@H](Cc3ccc(C(F)(F)F)cc3)C(=O)N(C)CC(=O)N[C@@H](CCc3cc(F)c(C(F)(F)F)c(F)c3)C(=O)N2C1 [PP0712] | 0.042 | C (A compound having a KD ratio of 0.1 or more and less than 3 is denoted as C) | C (A compound having a KD ratio of 0.1 or more and less than 3 is denoted as C)
4 | CCO[C@@H]1C[C@H]2C(=O)NC3(CCC3)C(=O)N(C)[C@@H](C3CCCC3)C(=O)N(C)[C@H](C(=O)N3CCOCC3)CC(=O)N(C)[C@@H](CC3CCC3)C(=O)N[C@@H]([C@@H](C)CC)C(=O)N(C)CC(=O)N(C)[C@H]3CCCCN(C3=O)[C@@H](Cc3ccc(C(F)(F)F)cc3)C(=O)N(C)CC(=O)N[C@@H](CCc3cc(F)c(C(F)(F)F)c(F)c3)C(=O)N2C1 [PP0713] | 0.033 | C (A compound having a KD ratio of 0.1 or more and less than 3 is denoted as C) | B (a compound having 3 or more and less than 10 is denoted as B)
5 | CCO[C@@H]1C[C@H]2C(=O)NC3(CCC3)C(=O)N(C)[C@@H](C3CCCC3)C(=O)N(C)[C@H](C(=O)N3CCOCC3)CC(=O)N(C)[C@@H](CC(C)(C)C)C(=O)N[C@@H]([C@@H](C)CC)C(=O)N(C)CC(=O)N(C)[C@H]3CCCCN(C3=O)[C@@H](Cc3ccc(C(F)(F)F)cc3)C(=O)N(C)CC(=O)N[C@@H](CCc3cc(F)c(C(F)(F)F)c(F)c3)C(=O)N2C1 [PP0714] | 0.047 | C (A compound having a KD ratio of 0.1 or more and less than 3 is denoted as C) | B (a compound having 3 or more and less than 10 is denoted as B)
6 | CCO[C@@H]1C[C@H]2C(=O)NC3(CCC3)C(=O)N(C)[C@@H](C3CCCC3)C(=O)N(C)[C@H](C(=O)N3CCOCC3)CC(=O)N(C)[C@@H](CC3CCCC3)C(=O)N[C@@H]([C@@H](C)CC)C(=O)N(C)CC(=O)N(C)[C@H]3CCCCN(C3=O)[C@@H](Cc3ccc(C(F)(F)F)cc3)C(=O)N(C)CC(=O)N[C@@H](CCc3cc(F)c(C(F)(F)F)c(F)c3)C(=O)N2C1 [PP0715] | 0.035 | C (A compound having a KD ratio of 0.1 or more and less than 3 is denoted as C) | B (a compound having 3 or more and less than 10 is denoted as B)
7 | CCO[C@@H]1C[C@H]2C(=O)NC3(CCC3)C(=O)N(C)[C@@H](C3CCCC3)C(=O)N(C)[C@H](C(=O)N3CCOCC3)CC(=O)N(C)[C@@H](CC3CCCCC3)C(=O)N[C@@H]([C@@H](C)CC)C(=O)N(C)CC(=O)N(C)[C@H]3CCCCN(C3=O)[C@@H](Cc3ccc(C(F)(F)F)cc3)C(=O)N(C)CC(=O)N[C@@H](CCc3cc(F)c(C(F)(F)F)c(F)c3)C(=O)N2C1 [PP0716] | 0.055 | C (A compound having a KD ratio of 0.1 or more and less than 3 is denoted as C) | B (a compound having 3 or more and less than 10 is denoted as B)
8 | CCO[C@@H]1C[C@H]2C(=O)NC3(CCC3)C(=O)N(C)[C@@H](C3CCCC3)C(=O)N(C)[C@H](C(=O)N3CCOCC3)CC(=O)N(C)[C@@H](COC)C(=O)N[C@@H]([C@@H](C)CC)C(=O)N(C)CC(=O)N(C)[C@H]3CCCCN(C3=O)[C@@H](Cc3ccc(C(F)(F)F)cc3)C(=O)N(C)CC(=O)N[C@@H](CCc3cc(F)c(C(F)(F)F)c(F)c3)C(=O)N2C1 [PP0719] | 0.02 | C (A compound having a KD ratio of 0.1 or more and less than 3 is denoted as C) | B (a compound having 3 or more and less than 10 is denoted as B)
9 | CCO[C@@H]1C[C@H]2C(=O)NC3(CCC3)C(=O)N(C)[C@@H](C3CCCC3)C(=O)N(C)[C@H](C(=O)N3CCOCC3)CC(=O)N(C)[C@@H](CCOC)C(=O)N[C@@H]([C@@H](C)CC)C(=O)N(C)CC(=O)N(C)[C@H]3CCCCN(C3=O)[C@@H](Cc3ccc(C(F)(F)F)cc3)C(=O)N(C)CC(=O)N[C@@H](CCc3cc(F)c(C(F)(F)F)c(F)c3)C(=O)N2C1 [PP0720] | 0.036 | C (A compound having a KD ratio of 0.1 or more and less than 3 is denoted as C) | B (a compound having 3 or more and less than 10 is denoted as B)
10 | CCO[C@@H]1C[C@H]2C(=O)NC3(CCC3)C(=O)N(C)[C@@H](C3CCCC3)C(=O)N(C)[C@H](C(=O)N3CCOCC3)CC(=O)N(C)C[C@@H](C)C(=O)N[C@@H]([C@@H](C)CC)C(=O)N(C)CC(=O)N(C)[C@H]3CCCCN(C3=O)[C@@H](Cc3ccc(C(F)(F)F)cc3)C(=O)N(C)CC(=O)N[C@@H](CCc3cc(F)c(C(F)(F)F)c(F)c3)C(=O)N2C1 [PP0721] | 11 | B (a compound having 3 or more and less than 10 is denoted as B) | B (a compound having 3 or more and less than 10 is denoted as B)
11 | CCO[C@@H]1C[C@H]2C(=O)NC3(CC(C)(C)C3)C(=O)N(C)[C@@H](C3CCCC3)C(=O)N(C)[C@H](C(=O)N(C)C)CC(=O)N(C)[C@@H](C)C(=O)N[C@@H]([C@@H](C)CC)C(=O)N(C)CC(=O)N(C)[C@H]3CCCCCN(C3=O)[C@@H](Cc3ccc(C(F)(F)F)cc3)C(=O)N(C)CC(=O)N[C@@H](CCc3cc(F)c(C(F)(F)F)c(F)c3)C(=O)N2C1 [PP0723] | 0.47 | B (a compound having 3 or more and less than 10 is denoted as B) | B (a compound having 3 or more and less than 10 is denoted as B)
12 | CCO[C@@H]1C[C@H]2C(=O)NC3(CCC(F)(F)CC3)C(=O)N(C)[C@@H](C3CCCC3)C(=O)N(C)[C@H](C(=O)N(C)C)CC(=O)N(C)[C@@H](C)C(=O)N[C@@H]([C@@H](C)CC)C(=O)N(C)CC(=O)N(C)[C@H]3CCCCCN(C3=O)[C@@H](Cc3ccc(C(F)(F)F)cc3)C(=O)N(C)CC(=O)N[C@@H](CCc3cc(F)c(C(F)(F)F)c(F)c3)C(=O)N2C1 [PP0725] | 5 | B (a compound having 3 or more and less than 10 is denoted as B) | B (a compound having 3 or more and less than 10 is denoted as B)
13 | CCO[C@@H]1C[C@H]2C(=O)NC3(CC(C)(C)C3)C(=O)N(C)[C@@H](C3CCCC3)C(=O)N(C)[C@H](C(=O)N3CCOCC3)CC(=O)N(C)[C@@H](CC(C)C)C(=O)N[C@@H]([C@@H](C)CC)C(=O)N(C)CC(=O)N(C)[C@H]3CCCCCN(C3=O)[C@@H](Cc3ccc(C(F)(F)F)cc3)C(=O)N(C)CC(=O)N[C@@H](CCc3cc(F)c(C(F)(F)F)c(F)c3)C(=O)N2C1 [PP0726] | 1.1 | B (a compound having 3 or more and less than 10 is denoted as B) | B (a compound having 3 or more and less than 10 is denoted as B)
14 | CCO[C@@H]1C[C@H]2C(=O)NC3(CC=CC3)C(=O)N(C)[C@@H](C3CCCC3)C(=O)N(C)[C@H](C(=O)N3CCOCC3)CC(=O)N(C)[C@@H](CC(C)C)C(=O)N[C@@H]([C@@H](C)CC)C(=O)N(C)CC(=O)N(C)[C@H]3CCCCCN(C3=O)[C@@H](Cc3ccc(C(F)(F)F)cc3)C(=O)N(C)CC(=O)N[C@@H](CCc3cc(F)c(C(F)(F)F)c(F)c3)C(=O)N2C1 [PP0727] | 1.3 | B (a compound having 3 or more and less than 10 is denoted as B) | B (a compound having 3 or more and less than 10 is denoted as B)
